Earlier results on four compounds are cited in patent US10822355B2, “Ultralow-power near infrared lamp light operable targeted organic nanoparticle photodynamic therapy” (University of Massachusetts, priority 2016, dated 2020).

For data set [1] the following is noted: for ΦΔ (%): literature values (References S2, S6, S7).
The conditions of data set [2]: for ε: at 525 nm (B-1), 630 nm (B-2), 661 nm (B-3); for ΦF (%) / ε/10^5 M^−1 cm^−1 / λabs (max) / λem (max): literature values (References S2, S6, S7).

In the case of 2,6-diiodio-BODIPY [B-1], the “ΦΔ (%)” value in data set [1] is 79.5%. In data set [2], the ε was 85000 M⁻¹ cm⁻¹, the “ΦF (%)” value is 3%, the “ε/10^5 M^−1 cm^−1” value is given as 0.85 10^5 M^−1 cm^−1 and the “λabs (max)” value was 529. For the same compound, the “λem (max)” value in data set [2] is given as 548.
With 2,6-diiodiodistyl-BODIPY [B-2], in data set [1], the “ΦΔ (%)” value is recorded as 69.0%. In data set [2], the ε is 77000 M⁻¹ cm⁻¹, the “ΦF (%)” value is listed as 5%, the “ε/10^5 M^−1 cm^−1” value is given as 0.77 10^5 M^−1 cm^−1 and the “λabs (max)” value is on record as 630. Further, in data set [2], the “λem (max)” value is recorded as 654.
Regarding 2,6-diiodiodistyl-BODIPY [B-3], the “ΦΔ (%)” value in data set [1] is on record as 61.2%. Further, in data set [2], the ε is 98000 M⁻¹ cm⁻¹, the “ΦF (%)” value is recorded as 7%, the “ε/10^5 M^−1 cm^−1” value is on record as 0.98 10^5 M^−1 cm^−1 and the “λabs (max)” value is 661. Moreover, in data set [2], the “λem (max)” value was 689.
With `CN(C)c1ccc2nc3ccc(=[N+](C)C)cc-3sc2c1` [methyl blue, methylene blue], the ΦΔ of reference in data set [1] (in dichloromethane) was 0.52.
